Values of other authors, collected in patent publication US9328386B2, “Markers for susceptibility to an inhibitor of an Src-family kinase” (Evotec (München) GmbH, priority 2011, dated 2016).

Assays:
CSK = CSK (Homo sapiens, UniProt P41240); conditions: cited from earlier work
MET = MET (Homo sapiens, UniProt P08581); conditions: cited from earlier work
SFK = conditions: cited from earlier work
SRC = SRC (Homo sapiens, UniProt P12931); conditions: cited from earlier work
YES = YES (Homo sapiens, UniProt P07947); conditions: unit not given; cited from earlier work
YES, sequence (P07947 whole entry, species assumed): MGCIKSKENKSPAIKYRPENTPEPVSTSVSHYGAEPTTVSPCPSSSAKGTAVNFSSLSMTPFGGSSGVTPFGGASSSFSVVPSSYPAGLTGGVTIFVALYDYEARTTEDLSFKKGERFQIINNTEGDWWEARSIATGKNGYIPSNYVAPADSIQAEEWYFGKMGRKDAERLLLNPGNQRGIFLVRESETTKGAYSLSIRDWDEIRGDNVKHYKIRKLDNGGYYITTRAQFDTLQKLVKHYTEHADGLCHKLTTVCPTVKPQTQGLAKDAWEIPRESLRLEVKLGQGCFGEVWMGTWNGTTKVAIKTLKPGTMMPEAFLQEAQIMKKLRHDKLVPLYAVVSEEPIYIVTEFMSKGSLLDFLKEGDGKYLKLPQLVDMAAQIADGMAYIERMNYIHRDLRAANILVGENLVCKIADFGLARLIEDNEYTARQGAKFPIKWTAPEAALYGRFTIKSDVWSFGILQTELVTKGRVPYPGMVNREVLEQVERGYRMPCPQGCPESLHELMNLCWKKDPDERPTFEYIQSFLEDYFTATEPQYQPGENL

FGFR1 = FGFR1 (Homo sapiens, UniProt P11362); conditions: cited from earlier work
FGFR1, sequence (P11362 22-822, species assumed): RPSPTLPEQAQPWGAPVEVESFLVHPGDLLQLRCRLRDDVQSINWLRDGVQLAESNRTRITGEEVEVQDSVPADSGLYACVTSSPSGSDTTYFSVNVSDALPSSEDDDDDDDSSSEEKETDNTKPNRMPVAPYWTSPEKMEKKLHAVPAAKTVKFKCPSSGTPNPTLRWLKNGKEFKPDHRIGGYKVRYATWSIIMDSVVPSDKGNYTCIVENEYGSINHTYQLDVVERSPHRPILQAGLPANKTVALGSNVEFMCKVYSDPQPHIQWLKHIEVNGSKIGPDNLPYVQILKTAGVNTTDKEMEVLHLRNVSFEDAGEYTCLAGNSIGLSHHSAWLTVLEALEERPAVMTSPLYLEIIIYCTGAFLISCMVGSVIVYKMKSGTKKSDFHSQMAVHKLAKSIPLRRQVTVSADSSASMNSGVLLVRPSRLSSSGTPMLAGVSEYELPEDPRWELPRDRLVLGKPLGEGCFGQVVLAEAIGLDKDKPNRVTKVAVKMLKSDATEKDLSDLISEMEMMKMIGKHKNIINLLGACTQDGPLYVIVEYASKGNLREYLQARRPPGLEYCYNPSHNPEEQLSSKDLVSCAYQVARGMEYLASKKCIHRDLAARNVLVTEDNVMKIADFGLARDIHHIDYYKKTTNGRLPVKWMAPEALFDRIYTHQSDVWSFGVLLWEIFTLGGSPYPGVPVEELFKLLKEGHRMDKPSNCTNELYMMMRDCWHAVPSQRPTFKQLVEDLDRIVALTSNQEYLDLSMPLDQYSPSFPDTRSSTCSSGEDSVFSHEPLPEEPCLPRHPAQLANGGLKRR

VEGFR = conditions: cited from earlier work
EGFR = EGFR (Homo sapiens, UniProt P00533); conditions: cited from earlier work
EGFR, sequence (P00533 25-1210, species assumed): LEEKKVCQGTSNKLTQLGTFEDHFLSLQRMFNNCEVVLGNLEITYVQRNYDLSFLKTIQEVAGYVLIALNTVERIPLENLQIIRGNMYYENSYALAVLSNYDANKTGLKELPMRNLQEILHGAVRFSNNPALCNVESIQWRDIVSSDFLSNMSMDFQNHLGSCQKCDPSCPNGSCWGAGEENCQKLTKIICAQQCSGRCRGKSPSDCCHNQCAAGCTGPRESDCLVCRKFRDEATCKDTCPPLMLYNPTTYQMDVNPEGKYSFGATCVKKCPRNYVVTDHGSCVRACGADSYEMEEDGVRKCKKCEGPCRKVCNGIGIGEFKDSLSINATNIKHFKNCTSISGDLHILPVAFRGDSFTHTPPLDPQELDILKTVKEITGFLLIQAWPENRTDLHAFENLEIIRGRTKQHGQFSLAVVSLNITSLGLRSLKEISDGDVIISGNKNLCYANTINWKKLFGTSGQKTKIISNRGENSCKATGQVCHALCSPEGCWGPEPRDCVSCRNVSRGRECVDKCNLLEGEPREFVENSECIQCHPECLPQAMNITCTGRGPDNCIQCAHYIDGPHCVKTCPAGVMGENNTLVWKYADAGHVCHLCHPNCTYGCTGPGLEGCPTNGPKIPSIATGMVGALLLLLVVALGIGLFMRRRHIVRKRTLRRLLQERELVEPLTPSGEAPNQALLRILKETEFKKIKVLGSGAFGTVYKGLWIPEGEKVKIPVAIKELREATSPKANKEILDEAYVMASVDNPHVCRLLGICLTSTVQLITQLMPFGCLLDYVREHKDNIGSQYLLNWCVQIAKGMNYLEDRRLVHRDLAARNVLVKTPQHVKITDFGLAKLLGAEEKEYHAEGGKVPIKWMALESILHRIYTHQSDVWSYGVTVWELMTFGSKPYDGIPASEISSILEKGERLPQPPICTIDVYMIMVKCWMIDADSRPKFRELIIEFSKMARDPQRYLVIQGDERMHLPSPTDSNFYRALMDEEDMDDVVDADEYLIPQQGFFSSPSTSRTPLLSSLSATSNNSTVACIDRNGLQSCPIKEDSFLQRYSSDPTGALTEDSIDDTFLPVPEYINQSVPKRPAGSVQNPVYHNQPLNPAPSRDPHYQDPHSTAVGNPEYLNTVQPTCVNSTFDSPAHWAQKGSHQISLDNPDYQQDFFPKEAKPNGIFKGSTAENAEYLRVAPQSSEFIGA

LCK = LCK (Homo sapiens, UniProt P06239); conditions: cited from earlier work
LCK, sequence (P06239 whole entry, species assumed): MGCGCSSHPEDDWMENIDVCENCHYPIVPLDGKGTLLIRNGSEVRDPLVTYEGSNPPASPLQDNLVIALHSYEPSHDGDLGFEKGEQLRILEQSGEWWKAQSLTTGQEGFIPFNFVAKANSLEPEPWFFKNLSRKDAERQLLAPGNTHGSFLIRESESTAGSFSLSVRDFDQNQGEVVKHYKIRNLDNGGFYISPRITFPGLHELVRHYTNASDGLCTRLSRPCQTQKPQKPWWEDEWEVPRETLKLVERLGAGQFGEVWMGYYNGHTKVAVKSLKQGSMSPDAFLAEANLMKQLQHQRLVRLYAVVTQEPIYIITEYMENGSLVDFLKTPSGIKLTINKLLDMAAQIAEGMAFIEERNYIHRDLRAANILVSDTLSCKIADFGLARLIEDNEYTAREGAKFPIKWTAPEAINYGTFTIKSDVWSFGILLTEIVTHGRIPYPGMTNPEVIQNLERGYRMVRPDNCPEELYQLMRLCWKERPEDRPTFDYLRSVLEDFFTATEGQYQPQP

CSK, sequence (P41240 whole entry, species assumed): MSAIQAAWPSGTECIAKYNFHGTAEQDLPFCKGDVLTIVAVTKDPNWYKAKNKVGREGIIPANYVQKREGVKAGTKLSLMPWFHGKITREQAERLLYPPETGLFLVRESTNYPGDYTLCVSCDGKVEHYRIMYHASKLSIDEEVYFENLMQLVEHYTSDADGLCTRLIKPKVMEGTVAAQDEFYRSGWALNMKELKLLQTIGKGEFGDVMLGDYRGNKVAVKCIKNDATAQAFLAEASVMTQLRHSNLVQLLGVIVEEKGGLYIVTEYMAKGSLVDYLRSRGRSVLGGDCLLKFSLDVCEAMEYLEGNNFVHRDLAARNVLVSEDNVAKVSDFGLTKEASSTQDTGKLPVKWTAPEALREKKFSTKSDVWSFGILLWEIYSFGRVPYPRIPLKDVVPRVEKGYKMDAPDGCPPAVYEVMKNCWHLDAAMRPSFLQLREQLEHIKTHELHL
SRC, sequence (P12931 whole entry, species assumed): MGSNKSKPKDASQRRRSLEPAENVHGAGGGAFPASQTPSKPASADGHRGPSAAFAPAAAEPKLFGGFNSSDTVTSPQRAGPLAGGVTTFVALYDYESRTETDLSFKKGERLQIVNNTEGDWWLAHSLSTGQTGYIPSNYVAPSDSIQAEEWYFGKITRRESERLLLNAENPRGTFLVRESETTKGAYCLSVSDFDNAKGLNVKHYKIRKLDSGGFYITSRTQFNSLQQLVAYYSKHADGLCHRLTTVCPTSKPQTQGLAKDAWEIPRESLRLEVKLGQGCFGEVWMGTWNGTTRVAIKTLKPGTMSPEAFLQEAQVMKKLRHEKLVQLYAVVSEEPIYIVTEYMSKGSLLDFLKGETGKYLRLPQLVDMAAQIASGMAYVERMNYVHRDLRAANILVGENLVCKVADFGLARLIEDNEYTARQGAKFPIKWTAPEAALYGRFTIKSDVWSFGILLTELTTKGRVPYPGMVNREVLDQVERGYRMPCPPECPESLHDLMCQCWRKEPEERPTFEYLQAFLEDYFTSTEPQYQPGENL

SMILES	Affinities (basic outline) (CSK) [µM]	Affinities (basic outline) (MET) [nM]	Affinities (basic outline) (SFK) [nM]	Affinities (basic outline) (SRC) [nM]	Affinities (basic outline) (YES)	Affinities (basic outline) (FGFR1) [µM]	Affinities (basic outline) (VEGFR) [nM]	Affinities (basic outline) (EGFR) [nM]	Affinities (basic outline) (LCK) [nM]
CN(C)S(=O)(=O)c1ccc2c(c1)/C(=C/c1cc3c([nH]1)CCCC3)C(=O)N2 [SU6656, (2-oxo-3-(4,5,6,7-tetrahydro-1H-indol-2-ylmethylene)-2,3-dihydro-1H-indole-5-sulfonic acid dimethylamide)]	0.007	3	0.02 to 6.88	–	–	–	–	–	–
COc1ccc(Cl)c(Nc2ncnc3cc(OCC4CCN(C)CC4)c(OC)cc23)c1 [M475271, 4-quinazolinamine, N-(2-chloro-5-methoxyphenyl)-6-methoxy-7-[(1-methyl-4-piperidinyl)methoxy]-(9Cl)]	7.6	–	–	25	10	20	500	600	200
